The source of these data is ChEMBL document CHEMBL1150071, “Konbamidin, a new indole alkaloid from the Okinawan marine sponge Ircinia sp” (J Nat Prod, 1994).

The subject of the assay is HeLa. The assay can be described thus: Cytotoxicity against human HeLa cells. The class given is functional, cell-based.

In brackets after ≈: the same amount, converted by molar mass.

In turn, `O=C(O)CN[C@H](Cc1c[nH]c2ccccc12)C(=O)O` [KONBAMIDIN] returned an IC50 of 5.4 µg/mL (≈ 20.6 µM).
